Experimental data: PubChem BioAssay AID330 (DTP/NCI, 2004)
Several values for one entry are separate records, joined by “and”; a condition that tells them apart may be missing. Equal values may be shown once. Inconclusive results and toxic doses are left out.

Tested on: P388 leukemia ip, CD2F1 mice, survival T/C
Assay: NCI In Vivo Anticancer Drug Screen. Data for tumor model P388 Leukemia (intraperitoneal) in CD2F1 (CDF1) mice
Settings: endpoint: median survival time, higher = longer survival
In short: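 Mice carrying the transplanted tumor received test compound or vehicle. Survival was recorded in each group, and the value is the treated-group measurement divided by that of the vehicle-treated control group.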

[1] = dose: 100.0 mg/kg/injection, schedule: Q01DX009 (ip), vehicle: saline with Tween-80
[2] = dose: 100.0 mg/kg/injection, schedule: Q01DX001 (ip), vehicle: saline
[3] = dose: 200.0 mg/kg/injection, schedule: Q01DX001 (ip), vehicle: saline

In the case of O=NNc1ccc(SSc2ccc(NN=O)cc2)cc1, the T/C (dose: 1.56 mg/kg/injection, schedule: Q01DX009 (ip), vehicle: water) is reported as 106 % of control, the T/C (dose: 3.12 mg/kg/injection, schedule: Q01DX009 (ip), vehicle: water) is reported as 100 % of control and 124 % of control and the T/C (dose: 6.25 mg/kg/injection, schedule: Q01DX009 (ip), vehicle: water) is reported as 121 % of control. For the same compound, the T/C (dose: 12.5 mg/kg/injection, schedule: Q01DX009 (ip), vehicle: water) was 123 % of control.
In the case of CC(C)CC[NH-].CC(C)CC[NH-].[Cl][Pt+2]([Cl])([Cl])[Cl], the T/C [1] is reported as 176 % of control.
In the case of COCCCC12C=C(OC)C(=O)C=C1OC(c1cc(OC)c(OC)c(OC)c1)C2C (stereo not given), the T/C (dose: 8.75 mg/kg/injection, schedule: Q01DX005 (ip), vehicle: Klucel (hydroxypropylcellulose) (HPC)) is reported as 100 % of control, the T/C (dose: 17.5 mg/kg/injection, schedule: Q01DX005 (ip), vehicle: Klucel (hydroxypropylcellulose) (HPC)) is reported as 106 % of control and the T/C (dose: 35.0 mg/kg/injection, schedule: Q01DX005 (ip), vehicle: Klucel (hydroxypropylcellulose) (HPC)) is reported as 96 % of control.
For CC[C@@H]1C[C@H]2CN(CCc3c([nH]c4ccccc34)[C@@](C(=O)OC)(c3cc4c(cc3OC)N(C)[C@H]3[C@@](O)(C(=O)OC)[C@H](OC(C)=O)[C@]5(CC)CCCN6CC[C@]43[C@@H]65)C2)C1, the T/C (dose: 0.06 mg/kg/injection, schedule: Q01DX009 (ip), vehicle: water) was 104 % of control, the T/C (dose: 0.13 mg/kg/injection, schedule: Q01DX009 (ip), vehicle: water) was 104 % of control and the T/C (dose: 0.25 mg/kg/injection, schedule: Q01DX009 (ip), vehicle: water) was 105 % of control and 110 % of control. For the same compound, the T/C (dose: 0.5 mg/kg/injection, schedule: Q01DX009 (ip), vehicle: water) was 108 % of control and 118 % of control, the T/C (dose: 2.0 mg/kg/injection, schedule: Q01DX009 (ip), vehicle: saline with Tween-80) was 150 % of control and the T/C (dose: 4.0 mg/kg/injection, schedule: Q01DX009 (ip), vehicle: saline with Tween-80) was 159 % of control.
With Nc1ncnc2c1ccn2CC(O)CO (stereo not given) the T/C (dose: 50.0 mg/kg/injection, schedule: Q01DX005 (ip), vehicle: distilled water + alcohol) was 101 % of control, the T/C (dose: 100.0 mg/kg/injection, schedule: Q01DX005 (ip), vehicle: distilled water + alcohol) was 100 % of control and the T/C (dose: 200.0 mg/kg/injection, schedule: Q01DX005 (ip), vehicle: distilled water + alcohol) was 101 % of control.
In the case of O=[n+]1c2c(n([O-])c3cc(Cl)c(Cl)cc31)CCC2, the T/C (dose: 60.0 mg/kg/injection, schedule: Q01DX005 (ip), vehicle: saline with Tween-80) is reported as 95 % of control and the T/C (dose: 120.0 mg/kg/injection, schedule: Q01DX005 (ip), vehicle: saline with Tween-80) is reported as 95 % of control.
C[CH2][Pb]([CH2]C)([CH2]C)[n]1cnc2ccccc21 was tested, and the T/C (dose: 0.75 mg/kg/injection, schedule: Q01DX009 (ip), vehicle: Klucel (hydroxypropylcellulose) (HPC)) was 99 % of control, the T/C (dose: 1.5 mg/kg/injection, schedule: Q01DX009 (ip), vehicle: Klucel (hydroxypropylcellulose) (HPC)) was 118 % of control and the T/C (dose: 3.0 mg/kg/injection, schedule: Q01DX009 (ip), vehicle: Klucel (hydroxypropylcellulose) (HPC)) was 118 % of control. For the same compound, the T/C (dose: 3.12 mg/kg/injection, schedule: Q04DX003 (ip), vehicle: Klucel (hydroxypropylcellulose) (HPC)) was 96 % of control, the T/C (dose: 6.25 mg/kg/injection, schedule: Q04DX003 (ip), vehicle: Klucel (hydroxypropylcellulose) (HPC)) was 114 % of control and the T/C (dose: 12.5 mg/kg/injection, schedule: Q04DX003 (ip), vehicle: Klucel (hydroxypropylcellulose) (HPC)) was 92 % of control.
In the case of O=C(Nc1ccc(C(=O)Nc2cccc(C3=NCCN3)c2)cc1)Nc1ccc(C(=O)Nc2cccc(C3=NCCN3)c2)cc1, the T/C [2] is reported as 108 % of control, the T/C [3] is reported as 100 % of control and the T/C (dose: 400.0 mg/kg/injection, schedule: Q01DX001 (ip), vehicle: saline) is reported as 116 % of control.
COc1cc(Br)cc(OC)c1N=Cc1ccccc1 was tested, and the T/C (dose: 50.0 mg/kg/injection, schedule: Q01DX009 (ip), vehicle: saline with Tween-80) was 102 % of control, the T/C [1] was 97 % of control and the T/C (dose: 200.0 mg/kg/injection, schedule: Q01DX009 (ip), vehicle: saline with Tween-80) was 100 % of control.
CCOC1CC(=O)C2(C)C3CCC4(C)C(C(C)C5CC(C)=C(C)C(=O)O5)CCC4C3CC3OC32C1O (stereo not given) was tested, and the T/C (dose: 9.12 mg/kg/injection, schedule: Q01DX009 (ip), vehicle: saline + alcohol) was 101 % of control, the T/C (dose: 18.25 mg/kg/injection, schedule: Q01DX009 (ip), vehicle: saline + alcohol) was 96 % of control and the T/C (dose: 36.5 mg/kg/injection, schedule: Q01DX009 (ip), vehicle: saline + alcohol) was 100 % of control.
In the case of COC(=O)C1C(=O)OC(C(C)(C)Cl)C1C(=O)OC (stereo not given), the T/C (dose: 100.0 mg/kg/injection, schedule: Q04DX002 (ip), vehicle: saline with Tween-80) is reported as 99 % of control, the T/C (dose: 200.0 mg/kg/injection, schedule: Q04DX002 (ip), vehicle: saline with Tween-80) is reported as 98 % of control and the T/C (dose: 400.0 mg/kg/injection, schedule: Q04DX002 (ip), vehicle: saline with Tween-80) is reported as 101 % of control.
CN(NC=O)C(=N)N was tested, and the T/C (dose: 50.0 mg/kg/injection, schedule: Q01DX001 (ip), vehicle: saline) was 109 % of control, the T/C [2] was 100 % of control and the T/C [3] was 102 % of control.
